Measured values from US20220356170A1, “SREBP INHIBITOR COMPRISING A THIOPHENE CENTRAL RING” (Capulus Therapeutics, LLC, priority 2019, published 2022).

Assays:
[1] = Half-life in rat liver microsomes; format: in vitro ADME; details: read-out: Rat LM: Half life
Description: Half-life Human Microsomes: Compound 1 was evaluated for stability in human liver microsomes. A 10 mM stock solution of Compound 1 was prepared in DMSO and diluted with water: acetonitrile (1:1) to a concentration of 1 mM. A working concentration of 100 μM was prepared by further dilution with water: acetonitrile (1:1). To make the preincubation mixture, 2.5 μL of the diluted Compound 1 was combined with 75 μL of human liver microsomes at 3.33 mg/mL, and 85 μL of 100 mM potassium phosphate buffer, and this mixture pre-incubated for 10 min at 37° C. To make the 60 minute mixture without cofactor, 32.5 μL of the preincubation mixture was combined with 17.5 μL of 100 mM potassium phosphate buffer and incubated for 60 min at 37° C. […] To prepare the sample mixture to be evaluated, 25 μL incubation mixture was combined with 200 μL of acetonitrile containing internal standard and vortexed for 5 min at 1200 rpm, then centrifuged for 10 min at 4000 rpm. […] The sample mixture was evaluated by LC-MS/MS using 10 mM ammonium acetate with 0.1% FA as the aqueous mobile phase, and methanol as the organic mobile phase.
Half-life Rat and Mouse Microsomes: Compound 1 was evaluated in rat and mouse liver microsomes following a similar procedure as described above for human liver microsomes.

[2] = In vivo pharmacokinetics, oral; details: male C57 BL/6 mice
Description: The in vivo pharmacokinetic properties of Compound 1 by both intravenous and oral administration were evaluated in male C57 BL/6 mice. The in vivo pharmacokinetic properties of Compound 2 by both intravenous and oral administration were evaluated in male C57 BL/6 mice for comparison.
Animals were housed in cages with clean bedding. Certified rodent diet was provided. Water was available ad libitum. Environmental controls for the animal room were set to maintain a temperature of 22 to 25° C., humidity of 40-70% RH, and a 12-hour light /12-hour dark cycle. Normal healthy animals certified by the attending veterinarian were selected and acclimatized for minimum three days prior to initiation of study.
Procedure for Blood Withdrawal: Mice were anesthetized using gaseous anesthesia. Blood samples were collected through a capillary, guided in retro-orbital plexus. At each time point, blood samples from 3 mice of each respective group were collected. The blood samples were collected in pre-labeled tubes. 0.2 to 0.3 mL of blood were collected from each mouse. After collection of the blood samples at each time point, the samples were stored on ice prior to centrifugation. Blood samples were centrifuged within 15 minutes to separate plasma. Centrifugations was done at 1540 rcf (5000 rpm) at 4° C. for 10 minutes. The plasma was separated and transferred to pre-labeled micro-centrifuge tubes and promptly frozen at −80±10° C. until bioanalysis was performed. Samples were identified by test item, group, animal number, and collection time point.
To evaluate pharmacokinetic properties of oral delivery, nine male C57 BL/6 mice were administered 10 mg Compound 1/kg animal weight by mouth. The concentration of Compound 1 in the plasma of the animals was evaluated at 0.25, 0.5, 1, 2, 4, 6, 8, and 24 hr by taking blood samples. Compound 2 was similarly administered for comparison.

[3] = tested on: HepG2 stably expressing LSS-Luciferase transgene (SREBP transcriptional activity); experiment: Reporter screening assay, SRE-luciferase reporter; format: cell-based; details: Homo sapiens, 0% FCS media, 24 hours
Description: The effect of Compound 1 on transcriptional activity SREBP was evaluated using an SRE-luciferase reporter construct.
After 24 hours incubation medium cells were treated with various Lovastatin concentrations (10 μM, 5 μM and 1 μM). After 24 hours treatment plates were covered with aluminum foil and frozen at −80° C. overnight. Plates were thawed to room temperature and Luciferase assay was performed. Cells were seeded in a 96 well plate in 10% FCS DMEM media and incubated for 24 hours. Then, they are switched to 0% FCS Media with Compound 1 or DMSO control for another 24 hours, at which point they are assayed for activity of LSS-reporter.
Reagents for performing Luciferase assay were stored at −20° C. To a tube of lyophilized assay substrate was added 1 mL Substrate Solvent and mixed well. The Substrate tube after reconstitution was covered with aluminum foil so as to keep it protected from light. […]
Using a multi-channel pipette, 100 μL Assay Solution (buffer+substrate) was added directly to each sample well in Plate 1, which was incubated for 30 min (plate was covered with aluminum foil). After 30 min incubation, the plate was read for total luminescence. Each well was read for 2 seconds in a plate luminometer. (Microplate reader Envision Microplate reader from Perkin Elmer). Precaution was taken to incubate plate exactly for 30 min prior to reading on the plate reader. […]

[4] = mouse, plasma, oral, dose 10.00 mg/kg (Compound 1), 12.01 mg/kg (Compound 2)

CC(C)(O)c1cc(-c2csc(-c3ccc(C(=O)N4CCC(O)CC4)cc3Cl)c2)ccn1 [Compound 1, (3-chloro-4-(4-(2-(2-hydroxypropan-2-yl)pyridin-4-yl)thiophen-2-yl)phenyl)(4-hydroxypiperidin-1-yl)methanone]
half-life at 1 µM [1]: 1.68 h
bioavailability ([2]; mouse, plasma, oral vs intravenous): 59.7%
AUC(0-inf) [2, 4]: 76300 ng·h/mL
AUC(0-t) [2, 4]: 71200 ng·h/mL
Cmax [2, 4]: 7840 ng/mL
Tmax [2, 4]: 0.5 h
half-life [2, 4]: 6.18 h
MRT last ([2]; mouse, plasma, oral, dose 10.00 mg/kg (Compound 1), 12.01 mg/kg (Compound 2), read-out: MRT0-last): 7.6 h
AUCExtra ([2]; oral, dose 10.00 mg/kg (Compound 1), 12.01 mg/kg (Compound 2)): 6.77%
EC50 [3]: 150 nM
